We go through one compound from patent US20200010910A1, “Cytotoxic Chemotherapy-Based Predictive Assays for Acute Myeloid Leukemia” (The Regents of The University of California, priority 2017, published 2020).

What all share (format): cell-based, human
One assay deals with MDA MB 468. Briefly: MTT assay, carboplatin cytotoxicity. To be noted: 72 hours. The method, then:
(§1) Six breast cancer cell lines were tested. […] The cell lines were purchased from ATCC, and cultured in the recommended media. IC50 values were determined for each cell line using the MTT assay (Henderson et al., International Journal of Cancer 2011) after incubating cells for 72 hours with different concentrations of carboplatin. [^14C] carboplatin (53 mCi/mmol) was purchased from the GE Healthcare (Waukesha, Wis.) and further purified at Moravek Biochemical (Brea, Calif.). Unlabeled carboplatin (USP Pharmaceutical Grade) was used to minimize the usage of radiocarbon and achieve the specific activities required for microdoses and therapeutic doses.

The next assay deals with MCF-7. Nature of the assay: MTT assay, carboplatin cytotoxicity. The conditions noted are these: 72 hours. As for the experimental part: as §1
The test system of the next assay is BT 549. Nature of the assay: MTT assay, carboplatin cytotoxicity. To be noted: 72 hours. The method, then: as §1
A further assay relates to H23, H460, and H727. Nature of the assay: carboplatin-DNA monoadducts by AMS, average of sensitive NSCLC lines. To be noted: three most sensitive cell lines. The method, then:
NSCLC cell lines were cultured to >90% confluence, dosed with [^14C]carboplatin, and subjected to DNA isolation and AMS analysis. 60 mm dishes were seeded at a density of 1×10^6 cells/dish and allowed to attach overnight in a 37° C. humidified atmosphere containing 5% CO2. At hour 0, cells were dosed with 1 μM (relevant microdose concentration) or 100 μM carboplatin (therapeutically relevant concentration), each comprising 0.3 μM [^14C]carboplatin (50,000 dpm/ml). Cells were incubated with [^14C]carboplatin for 4 h before washing and cultured with carboplatin-free medium to mimic the in vivo carboplatin half-life (1.3-6 hours) in patients. DNA was harvested from the cell lines at hours 0, 2, 4, 8 and 24 hours after initial dosing. Ten micrograms of DNA per sample was converted to graphite and measured by AMS for ^14C/total C quantification. Triplicate sets of AMS experiments were performed for each cell line and time point. The 14C/total C ratio was converted to 14C atoms per DNA base-pair according to the algorithm described herein to provide values of carboplatin-DNA monoadducts per 10^8 nucleotides. The data was plotted as carboplatin-DNA monoadducts per 10^8 nucleotide (nt) vs time (FIGS. 8A and 8B). There was a time-dependent increase in the carboplatin-DNA monoadduct concentration during the first 4 hours of incubation with therapeutic or microdosing carboplatin (FIGS. 8A and 8B). […]

For `N.N.O=C([O-])C1(C(=O)[O-])CCC1.[Pt+2]` [carboplatin], the IC50 turned out to be 44 µM with MDA MB 468, 137 µM in the assay with MCF-7 and 68 µM in the assay on BT 549. Moreover, the “average area under curve (AUC) of carboplatin-DNA monoadducts” value in the assay on H23, H460, and H727 (microdosing) is recorded as 94.61±33.99 hr-monoadducts per 10^8 nt; in the assay with H23, H460, and H727 (therapeutic dosing), 9617.8±3172.7 hr-monoadducts per 10^8 nt.
